According to patent US20250136576A1, “Heterocyclic Compounds and Uses Thereof” (ACEA Therapeutics, Inc., priority 2021, published 2025):
Read-outs that look alike come from different tables or passages of the source.

Legend:
KM12-luc cells = experiment: Cell proliferation and growth inhibition assay (CCK-8) in KM12-luc; type: cell-based; conditions: KM12-luc cells, treated with test compounds for 72 hrs, CCK-8 viability, read-out: NTRK IC50 in KM12-luc
In short: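 Cells were grown at 37 °C, 5% CO2 with 10% FBS: MV-4-11 in IMDM, H1975 in RPMI 1640, KM12-luc in DMEM. Viability was read by CCK-8 (1-4 hrs reagent incubation, absorbance at OD450). IC50 came from a non-linear sigmoidal dose-response fit.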

H1975 cells = experiment: Cell proliferation and growth inhibition assay (CCK-8) in H1975; type: cell-based; conditions: treated with test compounds for 72 hrs, CCK-8 viability, read-out: EGFR IC50 in H1975
Method: MV-4-11 and H1975 cells were obtained from the American Type Culture Collection and KM12-luc cells were obtained from JCRB Cell Bank. All cell lines were maintained at 37° C. with 5% C02, in media supplemented with 10% fetal bovine serum and penicillin (100 units/mL) and streptomycin (100 μg/mL). MV-4-11 cells were maintained in Iscove's Modified Dubecco's Medium, H1975 cells were cultured with RPMI 1640 media, and KM12-luc cells were maintained in Dulbecco's Modification of Eagle's Medium. CCK-8 reagent was obtained from Yeasen.
Cell proliferation was assessed by CCK-8 assay (Yeasen) per the manufacturer's instructions. The MV-4-11 (AML), H1975, and KM12-luc cells were seeded at 30,000, 3,000 and 2,500 cells per well onto 96-well plates, and after a 24 h incubation, the cells were treated with test compounds for 72 hrs. Cell viability was assayed by incubating the cells with CCK-8 reagent for 1-4 hrs. Absorbance was measured at OD450 using the Beckman DTX880. The data was calculated using GraphPad Prism version 6.01. The IC50 values were fitted using a non-linear regression model with a sigmoidal dose response.

Row | Structure (SMILES) | IC50 (H1975 cells; Homo sapiens, NCI-H1975, 72 h) [nM] | IC50 (H1975 cells) [nM] | IC50 (KM12-luc cells; KM12-Luc, 72 h) [nM] | IC50 (KM12-luc cells) [nM]
1 | CCN(CCN(C)C)c1cc(F)c(Nc2nc(-c3cn(C)c4ccccc34)c3cc[nH]c3n2)cc1NC(C)=O [Compound 201, N-(2-((2-(dimethylamino)ethyl)(ethyl)amino)-4-fluoro-5-((4-(1-methyl-1H-indol-3-yl)-7H-pyrrolo[2,3-d]pyrimidin-2-yl)amino)phenyl)acetamide] | 1100 | – | 444 | –
2 | CC(=O)Nc1cc(Nc2nc(-c3c[nH]c4ccccc34)c3cc[nH]c3n2)cc(F)c1N(C)CCN(C)C [Compound 248a, N-(5-((4-(1H-indol-3-yl)-7H-pyrrolo[2,3-d]pyrimidin-2-yl)amino)-2-((2-(dimethylamino)ethyl)(methyl)amino)-3-fluorophenyl)acetamide] | – | 442 | 12.8 | –
3 | CCC(=O)Nc1cc(Nc2ncc(C(F)(F)F)c(-c3c[nH]c4ccccc34)n2)ccc1N(C)CCN(C)C [Compound 298, N-(5-((4-(1H-indol-3-yl)-5-(trifluoromethyl)pyrimidin-2-yl)amino)-2-((2-(dimethylamino)ethyl)(methyl)amino)phenyl)propionamide] | 289 | – | 44 | –
4 | CC(=O)Nc1cc(Nc2ncc(C(F)(F)F)c(-c3c[nH]c4ccccc34)n2)ccc1NCCN(C)C [Compound 303a, N-(5-((4-(1H-indol-3-yl)-5-(trifluoromethyl)pyrimidin-2-yl)amino)-2-((2-(dimethylamino)ethyl)amino)phenyl)acetamide] | 109 | – | 19.1 | –
5 | CC(=O)Nc1cc(Nc2ncc(C(F)(F)F)c(-c3cn(C)c4ccccc34)n2)ccc1N(C)CCN(C)C [Compound 305, N-(2-((2-(dimethylamino)ethyl)(methyl)amino)-5-((4-(1-methyl-1H-indol-3-yl)-5-(trifluoromethyl)pyrimidin-2-yl)amino)phenyl)acetamide] | – | 653 | – | 28.9
6 | CC(=O)Nc1cc(Nc2ncc(C(F)(F)F)c(-c3c[nH]c4cccc(F)c34)n2)ccc1N(C)CCN(C)C [Compound 316, N-(2-((2-(dimethylamino)ethyl)(methyl)amino)-5-((4-(4-fluoro-1H-indol-3-yl)-5-(trifluoromethyl)pyrimidin-2-yl)amino)phenyl)acetamide] | 477 | – | 21.6 | –
7 | CC(=O)Nc1cc(Nc2ncc(C(F)(F)F)c(-c3cn(C)c4c(C)cccc34)n2)ccc1N(C)CCN(C)C [Compound 368, N-(5-((4-(1,7-dimethyl-1H-indol-3-yl)-5-(trifluoromethyl)pyrimidin-2-yl)amino)-2-((2-(dimethylamino)ethyl)(methyl)amino)phenyl)acetamide] | 356 | – | 22.9 | –
8 | COc1cccc2c(-c3nc(Nc4cc(NC(C)=O)c(N(C)CCN(C)C)cc4F)ncc3C(F)(F)F)c[nH]c12 [Compound 378, N-(2-((2-(dimethylamino)ethyl)(methyl)amino)-4-fluoro-5-((4-(7-methoxy-1H-indol-3-yl)-5-(trifluoromethyl)pyrimidin-2-yl)amino)phenyl)acetamide] | 26.1 | – | 43.4 | –
9 | CC(=O)Nc1cc(Nc2nccc(-c3c[nH]c4c(F)cccc34)n2)ccc1N(C)CCN(C)C [Compound 546, N-(2-((2-(dimethylamino)ethyl)(methyl)amino)-5-((4-(7-fluoro-1H-indol-3-yl)pyrimidin-2-yl)amino)phenyl)acetamide] | 1020 | – | – | –
10 | Cc1cccc2c(-c3ccnc(Nc4ccc(N(C)CCN(C)C)c(N)c4)n3)c[nH]c12 [Compound 549, N^1-(2-(dimethylamino)ethyl)-N^1-methyl-N^4-(4-(7-methyl-1H-indol-3-yl)pyrimidin-2-yl)benzene-1,2,4-triamine] | 682 | – | – | –
11 | CCC(=O)Nc1cc(Nc2nccc(-c3c[nH]c4c(C)cccc34)n2)ccc1N(C)CCN(C)C [Compound 550, N-(2-((2-(dimethylamino)ethyl)(methyl)amino)-5-((4-(7-methyl-1H-indol-3-yl)pyrimidin-2-yl)amino)phenyl)propionamide] | 1510 | – | – | –
12 | CC(=O)Nc1cc(Nc2nccc(-c3c[nH]c4c(C)cccc34)n2)ccc1N(C)CCN(C)C [Compound 551, N-(2-((2-(dimethylamino)ethyl)(methyl)amino)-5-((4-(7-methyl-1H-indol-3-yl)pyrimidin-2-yl)amino)phenyl)acetamide] | 1540 | – | – | –
13 | COc1cccc2c(-c3ccnc(Nc4ccc(N(C)CCN(C)C)c(NC(C)=O)c4)n3)c[nH]c12 [Compound 554, N-(2-((2-(dimethylamino)ethyl)(methyl)amino)-5-((4-(7-methoxy-1H-indol-3-yl)pyrimidin-2-yl)amino)phenyl)acetamide] | 1030 | – | – | –
14 | CCC(=O)Nc1cc(Nc2nccc(-c3c[nH]c4c(OC)cccc34)n2)ccc1N(C)CCN(C)C [Compound 555, N-(2-((2-(dimethylamino)ethyl)(methyl)amino)-5-((4-(7-methoxy-1H-indol-3-yl)pyrimidin-2-yl)amino)phenyl)propionamide] | 2250 | – | – | –

Second part, led by results:

Row | IC50 (H1975 cells; Homo sapiens, NCI-H1975, 72 h) [nM] | IC50 (H1975 cells) [nM] | Structure (SMILES) | IC50 (KM12-luc cells; KM12-Luc, 72 h) [nM] | IC50 (KM12-luc cells) [nM]
15 | 2800 | – | CCC(=O)Nc1cccc(Nc2ncc(F)c(Nc3ccc(N4CCN(C(C)=O)CC4)cc3OC)n2)c1 [Compound 156, N-(3-((4-((4-(4-acetylpiperazin-1-yl)-2-methoxyphenyl)amino)-5-fluoropyrimidin-2-yl)amino)phenyl)propionamide] | 370 | –
16 | 1660 | – | CCC(=O)Nc1cc(Nc2nc(-c3cn(C)c4ccccc34)c3cc[nH]c3n2)ccc1N(CC)CCN(C)C [Compound 212b, N-(2-((2-(dimethylamino)ethyl)(ethyl)amino)-5-((4-(1-methyl-1H-indol-3-yl)-7H-pyrrolo[2,3-d]pyrimidin-2-yl)amino)phenyl)propionamide] | 37 | –
17 | – | 1050 | CC(=O)Nc1cc(Nc2nc(-c3c[nH]c4ccccc34)c3cc[nH]c3n2)cc(F)c1N(C)CCN(C)C [Compound 248b, N-(5-((4-(1H-indol-3-yl)-7H-pyrrolo[2,3-d]pyrimidin-2-yl)amino)-2-((2-(dimethylamino)ethyl)(methyl)amino)-3-fluorophenyl)acetamide] | – | 17.1
18 | 1070 | – | CC(=O)Nc1cc(Nc2ncc(C(F)(F)F)c(-c3cn(C)c4ccccc34)n2)ccc1N(C)CCN(C)C [Compound 296, N-(2-((2-(dimethylamino)ethyl)(methyl)amino)-5-((4-(1-methyl-1H-indol-3-yl)-5-(trifluoromethyl)pyrimidin-2-yl)amino)phenyl)acetamide] | – | 10.7
19 | 18.6 | – | CC(=O)Nc1cc(Nc2ncc(C(F)(F)F)c(-c3c[nH]c4c(C)cccc34)n2)c(F)cc1N(C)CCN(C)C [Compound 362, N-(2-((2-(dimethylamino)ethyl)(methyl)amino)-4-fluoro-5-((4-(7-methyl-1H-indol-3-yl)-5-(trifluoromethyl)pyrimidin-2-yl)amino)phenyl)acetamide] | 32.6 | –
20 | 862 | – | CC(=O)Nc1cc(Nc2ncc(Cl)c(-c3c[nH]c4ccccc34)n2)cc(F)c1N1CCC(N(C)C)C1 (stereo not drawn) [Compound 392, N-(5-((5-chloro-4-(1H-indol-3-yl)pyrimidin-2-yl)amino)-2-(3-(dimethylamino)pyrrolidin-1-yl)-3-fluorophenyl)acetamide] | 18.1 | –
21 | 80.4 | – | CCC(=O)Nc1cc(Nc2ncc(C(F)(F)F)c(-c3c[nH]c4c(C)cccc34)n2)ccc1N(C)CCN(C)C [Compound 542, N-(2-((2-(dimethylamino)ethyl)(methyl)amino)-5-((4-(7-methyl-1H-indol-3-yl)-5-(trifluoromethyl)pyrimidin-2-yl)amino)phenyl)propionamide] | – | –
22 | 67.4 | – | CCC(=O)Nc1cc(Nc2ncc(C(F)(F)F)c(-c3c[nH]c4c(OC)cccc34)n2)ccc1N(C)CCN(C)C [Compound 543, N-(2-((2-(dimethylamino)ethyl)(methyl)amino)-5-((4-(7-methoxy-1H-indol-3-yl)-5-(trifluoromethyl)pyrimidin-2-yl)amino)phenyl)propionamide] | – | –
23 | 876 | – | CN(C)CCN(C)c1ccc(Nc2nccc(-c3c[nH]c4c(F)cccc34)n2)cc1N [Compound 545, N^1-(2-(dimethylamino)ethyl)-N^1-methyl-N^4-(4-(7-fluoro-1H-indol-3-yl)pyrimidin-2-yl)benzene-1,2,4-triamine] | – | –
24 | 1180 | – | CCC(=O)Nc1cc(Nc2nccc(-c3c[nH]c4c(F)cccc34)n2)ccc1N(C)CCN(C)C [Compound 547, N-(2-((2-(dimethylamino)ethyl)(methyl)amino)-5-((4-(7-fluoro-1H-indol-3-yl)pyrimidin-2-yl)amino)phenyl)propionamide] | – | –
25 | 1140 | – | COc1cccc2c(-c3ccnc(Nc4ccc(N(C)CCN(C)C)c(N)c4)n3)c[nH]c12 [Compound 553, N^1-(2-(dimethylamino)ethyl)-N^4-(4-(7-methoxy-1H-indol-3-yl)pyrimidin-2-yl)-N^1-methylbenzene-1,2,4-triamine] | – | –
